Results: patent publication US20050220912A1, “Anti-inflammatory composition for treating pelvic endometriosis” (priority 2004, published 2005)

How the values were obtained:
[1] = Chondroitin sulfate solubility in oils; format: physicochemical; settings: in codfish oil, corn oil and olive oil (from the flesh of the olive)
From the text: Parallel experiments with codfish oil, corn oil and olive oil (from the flesh of the olive) were comtemplated, but chondroitin sulfate solubility in these oils was insufficient to meet the requirements of the experiment.

[2] = Effect of olive kernel extract on absorption of tritiated chondroitin sulfate in vivo (serum radioactivity after oral capsule); design: species or system male Sprague-Dawley rats; settings: serum radioactivity at 8 hours
Experimental: Chondroitin sulfate was tritiated by New England Nuclear Corp. to a specific activity of 4.3 mCi/ml.
Unlabeled chondroitin sulfate was dissolved in olive kernel extract at a ratio of about 55 w/v chondroitin sulfate powder to about 450 w/v of olive kernel extract (2.9% acidity as oleic acid, 1.03% water, 0.08% hexane). To this solution was added 20.2 microcuries of the labeled chondroitin sulfate. AAA gelatin capsules were filled with the resulting solution using an aluminum template molding device.
The laboratory animals (250 g male Sprague-Dawley rats) were kept overnight without food but with free access to water. One capsule containg the above-described chondroitin sulfate-olive kernel extract solution was given to each rat per os. Control animals were given the equivalent amount of chondroitin, but without olive kernel extract. The animals were then given free access to food. Serum radioactivity was measured 8 hours thereafter in a beta scintillation counter.

[3] = commercially available chondroitin sulfate preparations (cow trachea); cited from earlier work

chondroitin sulfate
chondroitin sulfate solubility [1]: insufficient | dose of labeled chondroitin sulfate that reached the circulation ([2]; control animals, per os capsule without olive kernel extract, n=3): about 3.9%+/−0.4% | dose of labeled chondroitin sulfate absorbed into the general circulation ([2]; per os capsule, chondroitin sulfate dissolved in olive kernel extract, n=4): about 14.3%+/−0.7% | Absorption from g.i. tract / absorbed orally [3]: less than 5%
